This is an account of results in publication PMC8546421, “Molecular modelling of the FOXO4-TP53 interaction to design senolytic peptides for the elimination of senescent cancer cells” (EBioMedicine, 2021).

Where no end group is shown, it is not given here. [ ]: non-standard residue; d: D form.

The test system of assay [1] is dividing A375 human melanoma cells. The assay can be described thus: Survival study, orthotopic A375 xenograft. It is filed as in vivo, mouse. To be noted: local injection once daily for two days. The source says:
Mice were aged between 3-8 months and 20-30 g in weight and were housed in specific pathogen free cages. Animals were randomly distributed among treatment groups by assigning mice within the same cage to different treatment regimens. To minimise confounders, mouse treatment order was randomised within each cage. Male and female mice were distributed between all treatment groups since the chemicals used were directly injected and are not metabolized. Researchers were not blinded to the group allocation, but all attempts were made to analyse the data without knowing treatment conditions. NOD.Cg-Prkdcscid Il2rgtm1Wjl/SzJ (NSG) were purchased from The Jackson Laboratory (IMSR Cat# JAX:005557, RRID:IMSR_JAX:005557). NOD.Cg-KitW-41J Tyr + Prkdcscid Il2rgtm1Wjl/ThomJ (NBSGW) were purchased from The Jackson Laboratory (IMSR Cat# JAX:026622, RRID:IMSR_JAX:026622). Immunocompromised mice used for these experiments were all in the NSG background; however, some mice were F1 generation of NSG x NBSGW, thus the brown coat colour as NBSGW mice have tyrosinase. Xenografts containing senescent cells were established by injecting A375-Luc/iRFP human melanoma cells which contained a luciferase expressing gene into immunocompromised NSG ears. Senescence was induced in the cells via doxorubicin treatment (40 nM) then resuspended in DMEM prior to injection. Each ear was then injected with 50 µL containing approximately 1,000,000 cells. The ears were treated once daily for two days with 50 µL of either 5 mg/mL peptide, or saline. To control for confounders, each mouse contained one ear treated with saline (control). For imaging, mice were injected with 3 mg luciferin intravenously and imaged before and after treatment. Transgenic mice (BrafCA, PtenloxP, Tyr::CreERT2) were purchased from The Jackson Laboratory (IMSR Cat# JAX:013590, RRID:IMSR_JAX:013590). These mice were maintained on a C57Bl6 background and all experimental mice contained Tyr::CreER with either Braf^CA/+, Pten^fx/+; Braf^CA/CA, Pten^fx/+, or Braf^CA/+, Pten^fx/fx. […] Hypopigmented melanomas sporadically formed over the next 3-5 months, typically on the back of the mouse. These melanomas were then directly injected with 100 µL of either 20 mg/mL ES2+10%DMSO, saline+10%DMSO, saline+10%Dabrafenib, or 20 mg/mL ES2+10%Dabrafenib. The researchers were not blinded to the experiment, but each mouse contained an internal control and all imaging was done with the same exposure times based upon control tissue. For survival analyses, either 750,000 or 25,000 A375-Luc/iRFP cells were injected intradermally into NSG mice. […] Mice were then monitored daily and allowed to age until a humane endpoint was reached according to our IACUC protocol, which in this case was tumours of 2 cm in size. […]

The subject of assay [2] is Braf/Pten sporadic melanomas. Description: SA-β-gal staining of melanomas in transgenic mice. It is filed as in vivo, mouse. The method, then:
Senescent and dividing cells or tissue sections were fixed with 4% formaldehyde. The cells were washed with PBS twice before staining with X-gal solution [1 mg/mL 5-bromo-4-chloro-3inolyl-β-D-galactoside (Boehringer Manneheim #745-740) in N,N-dimethylformamide, 5 mM potassium ferricyanide crystalline (#P-8131), 5 mM potassium […] (#P-3289), 2 mM magnesium chloride, and 1x PBS, pH 6.0. Cells or tissue sections were incubated at 37°C for 24 hours. After staining, cells were washed with PBS before being counted and imaged on the Leica Dmi8 microscope.
Mice were aged between 3-8 months and 20-30 g in weight and were housed in specific pathogen free cages. Animals were randomly distributed among treatment groups by assigning mice within the same cage to different treatment regimens. To minimise confounders, mouse treatment order was randomised within each cage. Male and female mice were distributed between all treatment groups since the chemicals used were directly injected and are not metabolized. Researchers were not blinded to the group allocation, but all attempts were made to analyse the data without knowing treatment conditions. […] Mice were then monitored daily and allowed to age until a humane endpoint was reached according to our IACUC protocol, which in this case was tumours of 2 cm in size. […]

The test system of assay [3] is Braf/Pten sporadic melanomas. The assay can be described thus: TUNEL staining of melanomas in transgenic mice. It counts as in vivo, mouse. Particulars: intratumoural injection daily over two days, single agents vs saline.
Description: Fixed frozen sections of melanomas were stained with the Click-IT Plus TUNEL assay (ThermoFisher C10618) according to the manufacturer's protocol. Stained sections were imaged with a Zeiss A2 upright microscope at either 20x or 10x. At least one of each treatment group were stained and imaged at the same time. All sections from each staining group were set to the same exposure time for TUNEL and DAPI. Any normalization of background levels was performed in Adobe Photoshop and set to the same scale for the entire image and for all other images.
A further assay deals with senescent A375 cells. The assay can be described thus: Peptide efficacy in culture (MTS), senescent cells. It counts as cell-based, human. Particulars: for senolytic activity (in words): senescent vs dividing A375 cells; for IC50: doxorubicin (40 nM)-induced senescent A375 cells, peptide replenished daily for two days, MTS, best fit polynomial, read-out: IC50^sen, concentration to kill 50% of senescent cells. The method, then:
(§1) Cell lines were treated with chemotherapy, doxorubicin (Sigma, Cat. No. 2252) to induce senescence (200 nM for HCT116, 100 nM for B16-F10 and MCF7, 50 nM for SW480 and DLD-1, 40 nM for A375-Luc/iRFP and MCF10a). MCF7 cells were treated with CDK4/6 inhibitor, palbociclib (Selleck Chemicals: S1116) to induce senescence (5 µM). A375 cells were treated with Braf inhibitor, Dabrafenib (Selleck Chemicals: S2807), to induce senescence (10 µM). Peptide efficacy experiments were performed by seeding 10,000 – 20,000 cells in a 96-well plate. The cells were given doxorubicin twice to make the cells senescent. After removal of doxorubicin, the plate was treated with varying concentrations of peptide. The peptide was replenished daily for two days. Cellular proliferation was quantified using the Promega CellTiter 96™ AQueous One Solution Cell Proliferation Assay (MTS) after 2 hours according to the manufacturer's protocol (Promega, G3581). To control for the charge of ES2, ProteoJuice (Millipore Sigma, 71281) was used to deliver ES2 using the manufacturers protocol, except 50 µL of 2 mM ES2 was mixed with 25 µL of ProteoJuice. Varying concentrations of the mixture were administered to A375 cells along with a control of only ProteoJuice.

In assay [4] the test system is senescent A375 human melanoma cells. The assay can be described thus: Orthotopic xenograft of senescent luciferase A375 cells in mouse ears. It counts as in vivo. To be noted: NSG mouse ears, local injection 50 µL of 5 mg/mL once daily for two days, imaged 24 hours after second treatment; ANOVA p<0.01. From the text: Mice were aged between 3-8 months and 20-30 g in weight and were housed in specific pathogen free cages. Animals were randomly distributed among treatment groups by assigning mice within the same cage to different treatment regimens. To minimise confounders, mouse treatment order was randomised within each cage. Male and female mice were distributed between all treatment groups since the chemicals used were directly injected and are not metabolized. Researchers were not blinded to the group allocation, but all attempts were made to analyse the data without knowing treatment conditions. NOD.Cg-Prkdcscid Il2rgtm1Wjl/SzJ (NSG) were purchased from The Jackson Laboratory (IMSR Cat# JAX:005557, RRID:IMSR_JAX:005557). NOD.Cg-KitW-41J Tyr + Prkdcscid Il2rgtm1Wjl/ThomJ (NBSGW) were purchased from The Jackson Laboratory (IMSR Cat# JAX:026622, RRID:IMSR_JAX:026622). Immunocompromised mice used for these experiments were all in the NSG background; however, some mice were F1 generation of NSG x NBSGW, thus the brown coat colour as NBSGW mice have tyrosinase. Xenografts containing senescent cells were established by injecting A375-Luc/iRFP human melanoma cells which contained a luciferase expressing gene into immunocompromised NSG ears. Senescence was induced in the cells via doxorubicin treatment (40 nM) then resuspended in DMEM prior to injection. Each ear was then injected with 50 µL containing approximately 1,000,000 cells. The ears were treated once daily for two days with 50 µL of either 5 mg/mL peptide, or saline. To control for confounders, each mouse contained one ear treated with saline (control). For imaging, mice were injected with 3 mg luciferin intravenously and imaged before and after treatment. Transgenic mice (BrafCA, PtenloxP, Tyr::CreERT2) were purchased from The Jackson Laboratory (IMSR Cat# JAX:013590, RRID:IMSR_JAX:013590). These mice were maintained on a C57Bl6 background and all experimental mice contained Tyr::CreER with either Braf^CA/+, Pten^fx/+; Braf^CA/CA, Pten^fx/+, or Braf^CA/+, Pten^fx/fx. […] Hypopigmented melanomas sporadically formed over the next 3-5 months, typically on the back of the mouse. These melanomas were then directly injected with 100 µL of either 20 mg/mL ES2+10%DMSO, saline+10%DMSO, saline+10%Dabrafenib, or 20 mg/mL ES2+10%Dabrafenib. The researchers were not blinded to the experiment, but each mouse contained an internal control and all imaging was done with the same exposure times based upon control tissue. For survival analyses, either 750,000 or 25,000 A375-Luc/iRFP cells were injected intradermally into NSG mice. Different combinations of drugs were locally injected to the region once daily for two days with 50 µL of either 5 mg/mL ES2, 10%Dabrafenib, or 5mg/mL ES2+10%Dabrafenib. Dabrafenib was made at 100 mg/mL in DMSO. Mice were then monitored daily and allowed to age until a humane endpoint was reached according to our IACUC protocol, which in this case was tumours of 2 cm in size. Aged C57Bl6 male mice were purchased from the Jackson Laboratory (IMSR Car# JAX:000664, RRID:IMSR_JAX:000664) at 72 weeks of age and were started on the experiment at 82 weeks. Mice were treated with 3 mg of ES2 via tail vein injection weekly for three weeks and weighed weekly. Blood was drawn prior to beginning experiments and at the endpoint. To generate plasma, blood was centrifuged at 1,500g for 10 minutes, then 2,500g for 10 minutes, then frozen for later analyses. […]

The subject of the next assay is dividing A375 cells. Description: Peptide efficacy in culture (MTS), dividing cells. It counts as cell-based, human. To be noted: for IC50: peptide replenished daily for two days, MTS, best fit polynomial, read-out: IC50^div, concentration to kill 50% of dividing cells. The method, then:
as §1

As to `CC(C)(C)c1nc(-c2cccc(NS(=O)(=O)c3c(F)cccc3F)c2F)c(-c2ccnc(N)n2)s1` [Dabrafenib], the “effect on survival time, in words” value in assay [1] (25,000 A375 cells) is reported as “no effect on survival time”; in assay [1] (750,000 A375 cells), “did not alter survival times”. The “increase of fraction of SA-β-gal+ cells within the melanoma over saline” value in assay [2] (Dabrafenib n=8, saline n=5, p<0.001) turned out to be 11 fold. The “senescence of the melanoma compared to vehicle, in words” value in assay [2] (intratumoural injection daily over two days) is given as “strongly induced senescence”. For the same molecule, the “effect on apoptosis (TUNEL), in words” value in assay [3] is reported as “no effect on apoptosis”; in assay [3] (listed as Dab), “no difference”.
For “H-GRKKRRQRRRPPPRKGGSRRRAWGNQRYARLIRQAIESAPEKRLTLA-OH [E1]”, the “senolytic activity (in words)” value in the assay with senescent A375 cells is listed as “negligible senolytic activity”.
As to “PRKGGRRRRAWGRRRRRRRLRRRLRRAPRKRLTLA [ES2r1]”, the “luciferase signal compared to E1 and saline” value in assay [4] is on record as “statistically significantly reduced luciferase signal”. In addition, the figures for the IC50 in the assay with senescent A375 cells and in the assay with dividing A375 cells were around 6 µM and around 13 µM, respectively. In the assay on senescent A375 cells, the “senolytic activity (in words)” value is “highest senolytic activity”.
The corresponding values for “PRKGGSRRRAWGRRRYRRRLRRRLRRAPRKRLTLA [ES2r2]” are “statistically significantly reduced luciferase signal”, around 9 µM, above 20 µM and “slightly lower senolytic activity”.
Turning to YGRKKRRQRRRYGRKKRRQRRRYGRKKRRQRRR [ES1], the “luciferase signal compared to E1 and saline” value in assay [4] is “statistically significantly reduced luciferase signal”. In addition, in the assay with senescent A375 cells, the IC50 is around 4 µM and the “senolytic activity (in words)” value was “highest senolytic activity”. The IC50 with dividing A375 cells is around 19 µM.
As for “[dL][dT][dL][dR][dK][dE][dP][dA][dS][dE][dI][dA][dQ][dS][dI][dL][dE][dA][dY][dS][dQ][dN]G[dW][dA][dN][dR][dR][dS]GG[dK][dR][dP][dP][dP][dR][dR][dR][dQ][dR][dR][dK][dK][dR]G [FOXO4-DRI, reference compound]”, the “luciferase signal compared to E1 and saline” value in assay [4] was “statistically significantly reduced luciferase signal”. Also, the “lytic activity in dividing cells (in words)” value in the assay on dividing A375 cells is recorded as “minimal lytic activity in dividing cells”.
